Reference: US12578339B2, “Hexokinase 1 isoform B for use as a prognosis marker and specific target against cancer” (ISTANBUL MEDIPOL UNIVERSITESI, priority 2019, dated 2026)
Entries after “also recorded” stand apart in the source; their conditions may differ.

What was measured:
Format in all cases: cell-based, Human
A549 HK1b−/− cells [1] = test: Cell viability assay (CellTiter-Blue); settings: 48 h treatment
Description: (§1) Twenty-four hours following seeding (15,000 cells/well) in a 96-well plate, A549 and A549 HK1b^−/− cells (70%-80% confluent) were treated with vehicle (PBS/Saline), or cisplatin with concentrations range from 0-100 μM/ml and the cells incubated for a further 48 h. The cell viability was determined using the CellTiter-Blue assay kit (Promega) according to the manufacturer's instructions and absorbance measured at 595 nm with a microplate reader (Model 3550, Bio-Rad Laboratories, CA, USA). IC50 was defined as the concentration causing a 50% reduction in absorbance relative to the negative control. IC50 was determined by non-linear regression analysis using Graphpad Prism v8 (Graphpad Software, CA, USA).

A549 WT cells [2] = test: Cell viability assay (CellTiter-Blue); settings: A549 WT control group, 48 h treatment
Description: as §1

A549 HK1b−/− cells [3] = test: Flow cytometric quantification of cell death by propidium iodide staining; settings: IC50 concentration (47 μM), 48 hrs
A549 HK1b−/− cells [4] = test: Immunoblot analysis of apoptotic, autophagic and survival signaling
Description: (§2) Cells were harvested and washed in PBS solution, collected, and then subjected to lysis in RIPA buffer containing proteinase inhibitor cocktail and phosphatase inhibitor cocktail (Roche). The lysates were subjected to centrifugation at 10,000 g at 4 C for 20 minutes and the supernatants removed. The total protein ([…]) was fractioned by 10% SDS-PAGE and electrophoretically transferred to Immobilon-FL PVDF membranes. The membrane was blocked with blocking buffer (Li-Cor) at room temperature for 1 hour, and then incubated with appropriate primary antibody at 4 C overnight. After washing with PBS containing 0.05% […] (PBST), the membrane was incubated with 1:2500 dilutions of appropriate secondary antibody for 2 hours at room temperature. The membrane was washed with PBST again, and Pierce ECL Western Blotting Substrate (Thermo Scientific) was used for development of immunoreactive bands. For immunoblotting of tissue samples, proteins were extracted from tumor and adjacent non-tumor lung samples collected from human NSCLC patients, snap frozen in liquid nitrogen, and stored at −80° C. Then protein lysis buffer (described above) was added to samples. Samples were vortexed, homogenized and subjected to three freeze/thaw cycles in dry ice, centrifuged and supernatant collected, and stored at −80° C. for subsequent immunoblotting.

A549 WT cells [5] = test: as above
Description: as §2

A549 HK1b−/− cells [6] = test: Seahorse XF glycolysis stress test (ECAR); settings: treated A549 HK1b−/− cells
Description: (§3) For Seahorse XFe96 assays, cells were seeded at pre-optimized final concentration 1.5×10^4 cells/well onto Seahorse XF-96-well plates and Glycolytic rate, Glycolysis stress and Mito Stress Tests were performed following the manufacturer's specifications (Seahorse Bioscience, North Billerica, MA). Each datum was determined minimally in triplicate. OCR and ECAR were reported as absolute rates (pmoles/min for OCR and mpH/min for ECAR) or normalized against cell counts, or expressed as a percentage of the baseline oxygen consumption.

A549 HK1b−/− cells [7] = test: Seahorse Mito Stress Test (OCR); settings: between treated A549 WT and A549 HK1b−/− cells
Description: as §3

A549 WT cells [8] = test: Seahorse Mito Stress Test (OCR); settings: treated A549 WT cells, p=0.02
Description: as §3

A549 HK1b−/− cells [9] = test: Flow cytometric analysis of mTOR activation; settings: flow cytometry, HK1b deletion plus treatment, p=0.001

N.N.[Cl][Pt][Cl] [cisplatin, Cisplatin]
IC50 (A549 HK1b−/− cells [1]): 47 µM | IC50 (A549 WT cells [2]): 75 µM | cell death measured by propidium iodide (PI) staining (A549 HK1b−/− cells [3]): significantly enhance cell death | induction of cleavage of PARP and caspase 3 (A549 HK1b−/− cells [4]; A549 HK1b−/− cells compared with A549 WT): significantly higher | autophagy induction (LC3II) (A549 HK1b−/− cells [4]; HK1b deletion plus treatment): induces greater autophagy | phosphorylation of STAT3 transcription factor (A549 HK1b−/− cells [4]; HK1b deletion plus treatment): inhibit significantly | AKT activation and its downstream target GSK3β (A549 HK1b−/− cells [4]; HK1b silencing in combination with treatment): totally inhibited | beclin-1 and ATG13 expression levels (A549 HK1b−/− cells [4]; both A549 WT and A549 HK1b−/− cells): downregulated | phosphorylation of mTOR (A549 HK1b−/− cells [4]; immunoblot, HK1b deletion plus treatment): inhibits significantly; also recorded: inhibits phosphorylation | AMPK phosphorylation (A549 HK1b−/− cells [4]; treated A549 HK1b−/− cells): totally inhibited | Bcl-2 expression (A549 HK1b−/− cells [4]; treated A549 HK1b−/− cells): down-regulation of Bcl-2 expression was significant | HK2 expression (A549 HK1b−/− cells [4]; treated A549 HK1b−/− cells): reduced | cleavage of PARP and caspase 3 (A549 WT cells [5]; immunoblot, A549 WT (and HK1b−/−) cells): induces cleavage of PARP and caspase 3 | AMPK phosphorylation (A549 WT cells [5]; treated A549 WT cells): diminished | HK1 expression (A549 WT cells [5]; treated A549 WT cells): significantly upregulated | basal glycolysis and glycolytic capacity (ECAR) (A549 HK1b−/− cells [6]): further reduction of basal glycolysis and glycolytic capacity even though not significant; also recorded: further reduced ablait not significant | glycolytic reserve (A549 HK1b−/− cells [6]): total absence | basal respiration rate (A549 HK1b−/− cells [7]): no significant change | spare respiratory capacity (A549 WT cells [8]): diminished | mTOR phosphorylation (A549 HK1b−/− cells [9]): significantly inhibits
